The values that follow come from patent US20240269139A1, “COMPOUNDS FOR TARGETED PROTEIN DEGRADATION OF KINASES” (DANA-FARBER CANCER INSTITUTE, INC., priority 2020, published 2024).

Read-outs that look alike come from different tables or passages of the source.

What all share (type): cell-based
Test [1] has as its target T1, protein kinases (human kinome) (Homo sapiens, UniProt Q969Z0).
T1 sequence (Q969Z0 108-631): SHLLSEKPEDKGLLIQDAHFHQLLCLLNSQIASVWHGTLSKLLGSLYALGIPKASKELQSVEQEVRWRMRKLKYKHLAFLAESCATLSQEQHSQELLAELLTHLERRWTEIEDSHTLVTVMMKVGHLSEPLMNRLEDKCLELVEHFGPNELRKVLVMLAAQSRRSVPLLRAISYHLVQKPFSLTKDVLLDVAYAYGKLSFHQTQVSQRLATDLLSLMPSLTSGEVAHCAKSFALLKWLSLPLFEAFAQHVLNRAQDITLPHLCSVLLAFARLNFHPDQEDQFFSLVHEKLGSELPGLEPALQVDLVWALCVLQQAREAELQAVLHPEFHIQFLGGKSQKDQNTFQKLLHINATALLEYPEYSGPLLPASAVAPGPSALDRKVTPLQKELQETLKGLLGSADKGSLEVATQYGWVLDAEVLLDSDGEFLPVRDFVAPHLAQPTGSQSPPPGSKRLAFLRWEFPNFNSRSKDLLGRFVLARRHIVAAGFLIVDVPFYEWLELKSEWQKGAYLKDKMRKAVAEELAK
The settings on record: Accession Q969Z0-1, direction down.

The target in test [2] is protein kinases (human kinome) (Homo sapiens, UniProt Q00535).
Sequence of protein kinases (human kinome) (Homo sapiens, UniProt Q00535) (Q00535 whole entry): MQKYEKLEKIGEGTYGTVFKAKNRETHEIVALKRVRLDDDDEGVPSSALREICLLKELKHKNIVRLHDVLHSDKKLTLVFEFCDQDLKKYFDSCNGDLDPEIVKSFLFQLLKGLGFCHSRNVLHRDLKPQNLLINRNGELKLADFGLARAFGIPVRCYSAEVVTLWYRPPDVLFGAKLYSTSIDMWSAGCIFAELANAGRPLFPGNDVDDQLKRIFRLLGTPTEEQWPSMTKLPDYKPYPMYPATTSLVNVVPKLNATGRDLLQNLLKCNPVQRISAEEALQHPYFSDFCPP
In test [3] the target is protein kinases (human kinome) (Homo sapiens, UniProt Q14004). The following applies: for logFC CDK13: Accession Q14004-1.
Sequence of protein kinases (human kinome) (Homo sapiens, UniProt Q14004) (Q14004 whole entry): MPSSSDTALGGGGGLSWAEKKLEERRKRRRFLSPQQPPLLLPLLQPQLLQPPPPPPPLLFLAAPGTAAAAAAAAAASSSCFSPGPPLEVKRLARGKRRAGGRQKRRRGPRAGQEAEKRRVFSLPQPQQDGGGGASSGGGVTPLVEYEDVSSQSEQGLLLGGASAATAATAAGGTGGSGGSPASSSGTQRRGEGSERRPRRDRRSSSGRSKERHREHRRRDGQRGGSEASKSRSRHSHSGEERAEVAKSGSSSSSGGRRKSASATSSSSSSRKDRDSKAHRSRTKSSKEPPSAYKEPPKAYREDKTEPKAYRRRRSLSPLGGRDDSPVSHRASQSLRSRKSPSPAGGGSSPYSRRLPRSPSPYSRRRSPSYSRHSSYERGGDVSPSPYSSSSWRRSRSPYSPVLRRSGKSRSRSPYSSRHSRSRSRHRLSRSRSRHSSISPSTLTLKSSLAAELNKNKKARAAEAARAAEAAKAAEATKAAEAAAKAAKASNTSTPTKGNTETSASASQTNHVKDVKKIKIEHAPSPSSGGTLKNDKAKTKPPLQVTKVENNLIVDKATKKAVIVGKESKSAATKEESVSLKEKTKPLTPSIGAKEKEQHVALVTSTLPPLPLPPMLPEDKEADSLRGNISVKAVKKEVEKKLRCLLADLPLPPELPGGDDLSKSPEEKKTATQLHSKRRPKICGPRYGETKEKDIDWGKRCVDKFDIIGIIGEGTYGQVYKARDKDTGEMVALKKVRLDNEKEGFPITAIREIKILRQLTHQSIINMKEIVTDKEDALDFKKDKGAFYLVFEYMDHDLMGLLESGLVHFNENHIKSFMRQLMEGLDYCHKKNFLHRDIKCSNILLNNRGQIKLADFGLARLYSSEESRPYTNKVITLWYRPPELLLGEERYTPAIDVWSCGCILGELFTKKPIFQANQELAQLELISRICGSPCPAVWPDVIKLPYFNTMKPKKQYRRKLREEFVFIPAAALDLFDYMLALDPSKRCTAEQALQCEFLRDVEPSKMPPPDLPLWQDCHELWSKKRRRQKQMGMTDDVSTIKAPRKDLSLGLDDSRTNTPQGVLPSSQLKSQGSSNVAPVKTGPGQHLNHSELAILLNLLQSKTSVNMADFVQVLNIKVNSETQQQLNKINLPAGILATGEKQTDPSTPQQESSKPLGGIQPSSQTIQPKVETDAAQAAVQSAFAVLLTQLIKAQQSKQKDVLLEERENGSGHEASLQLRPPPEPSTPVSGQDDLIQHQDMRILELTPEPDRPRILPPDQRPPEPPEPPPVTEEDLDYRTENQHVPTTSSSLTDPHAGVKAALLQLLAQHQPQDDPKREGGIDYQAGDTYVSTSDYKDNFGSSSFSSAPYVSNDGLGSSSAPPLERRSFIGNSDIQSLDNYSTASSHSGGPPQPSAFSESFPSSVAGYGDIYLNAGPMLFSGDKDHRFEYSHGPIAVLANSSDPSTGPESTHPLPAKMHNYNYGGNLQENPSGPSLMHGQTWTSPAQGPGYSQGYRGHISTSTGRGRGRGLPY
For test [4], the target named is protein kinases (human kinome) (Homo sapiens, UniProt P24941).
Test [5] deals with protein kinases (human kinome) (Homo sapiens, UniProt Q16584).
Sequence of protein kinases (human kinome) (Homo sapiens, UniProt Q16584) (Q16584 whole entry): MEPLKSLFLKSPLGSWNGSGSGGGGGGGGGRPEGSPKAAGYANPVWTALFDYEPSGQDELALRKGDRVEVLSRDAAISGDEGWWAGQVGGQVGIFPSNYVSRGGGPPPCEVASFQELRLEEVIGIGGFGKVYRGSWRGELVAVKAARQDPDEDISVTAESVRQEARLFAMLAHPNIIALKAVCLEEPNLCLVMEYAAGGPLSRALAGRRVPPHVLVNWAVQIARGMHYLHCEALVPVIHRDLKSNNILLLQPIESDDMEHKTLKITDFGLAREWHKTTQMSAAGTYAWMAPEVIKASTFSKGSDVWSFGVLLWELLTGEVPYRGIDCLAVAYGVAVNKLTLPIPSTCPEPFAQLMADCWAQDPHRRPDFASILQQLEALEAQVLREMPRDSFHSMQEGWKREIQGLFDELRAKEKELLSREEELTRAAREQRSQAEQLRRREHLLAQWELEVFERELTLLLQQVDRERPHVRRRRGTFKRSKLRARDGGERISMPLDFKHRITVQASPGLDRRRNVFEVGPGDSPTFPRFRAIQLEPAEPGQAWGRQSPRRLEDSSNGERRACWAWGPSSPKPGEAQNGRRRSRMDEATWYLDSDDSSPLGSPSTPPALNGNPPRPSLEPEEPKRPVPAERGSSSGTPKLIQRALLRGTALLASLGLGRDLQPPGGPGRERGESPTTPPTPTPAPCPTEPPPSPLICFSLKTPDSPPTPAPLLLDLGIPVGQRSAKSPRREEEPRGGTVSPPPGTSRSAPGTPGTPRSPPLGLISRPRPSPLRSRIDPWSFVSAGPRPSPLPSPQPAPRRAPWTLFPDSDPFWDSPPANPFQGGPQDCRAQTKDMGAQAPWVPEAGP
For test [6], the target named is T2, protein kinases (human kinome) (Homo sapiens, UniProt Q53H12).
T2 sequence (Q53H12 1-422): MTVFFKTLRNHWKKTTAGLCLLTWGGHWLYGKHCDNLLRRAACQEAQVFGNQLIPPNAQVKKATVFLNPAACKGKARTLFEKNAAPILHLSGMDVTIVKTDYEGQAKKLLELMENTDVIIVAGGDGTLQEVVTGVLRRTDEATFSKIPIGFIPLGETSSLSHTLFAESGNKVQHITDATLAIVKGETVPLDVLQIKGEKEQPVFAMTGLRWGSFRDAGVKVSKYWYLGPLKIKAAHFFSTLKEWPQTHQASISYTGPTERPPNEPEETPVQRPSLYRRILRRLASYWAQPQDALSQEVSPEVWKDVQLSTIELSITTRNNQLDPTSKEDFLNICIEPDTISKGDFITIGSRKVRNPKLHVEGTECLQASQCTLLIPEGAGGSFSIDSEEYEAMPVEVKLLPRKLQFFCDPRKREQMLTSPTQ
The settings on record: direction down.

Test [7] deals with T3, protein kinases (human kinome) (Homo sapiens, UniProt Q4G0N4).
T3 sequence (Q4G0N4 63-442): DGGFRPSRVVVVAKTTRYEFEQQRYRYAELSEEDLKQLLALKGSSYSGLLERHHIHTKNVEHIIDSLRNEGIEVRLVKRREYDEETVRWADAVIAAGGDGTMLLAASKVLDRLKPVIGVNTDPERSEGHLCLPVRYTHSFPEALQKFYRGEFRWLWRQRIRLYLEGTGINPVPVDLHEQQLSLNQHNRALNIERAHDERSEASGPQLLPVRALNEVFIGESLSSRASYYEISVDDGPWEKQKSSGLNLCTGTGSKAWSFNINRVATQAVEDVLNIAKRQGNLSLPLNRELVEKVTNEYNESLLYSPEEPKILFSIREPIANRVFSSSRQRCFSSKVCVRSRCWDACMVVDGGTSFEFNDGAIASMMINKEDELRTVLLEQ
The settings on record: Accession Q4GON4, direction down.

[8] abbreviates: experiment wp016, direction of change down.
Where [9] appears, read: experiment wp131, direction of change down.
Where [10] appears, read: experiment wp137, direction of change down.

Turning to `CC(C)S(=O)(=O)c1ccccc1Nc1nc(Nc2ccc(N3CCN(CCOCCOCCNC(=O)CNc4cccc5c4C(=O)N(C4CCC(=O)NC4=O)C5=O)CC3)cc2)ncc1Cl` (stereo not drawn) [TL12.186], in test [1] (experiment wp137), the “logFC TBRG4” value was −0.3425. In addition, the “logFC of CDK5” value in test [2] (Accession Q00535, experiment wp016) is −0.9261. For the same molecule, the “logFC CDK5 (Q00535)” value in test [2] (setting [8]) was −0.9261; in test [2] (experiment wp131), −1.3; in test [2] (setting [9]) it was −1.3; in test [2] (experiment wp137) it was −1.234; in test [2] (setting [10]), −1.234. Besides, the “logFC CDK13” value in test [3] (experiment wp016) is −0.5885; in test [3] (experiment wp131), −0.7903; in test [3] (experiment wp137), −0.7062. In test [3] (CDK13 (Q14004-1), experiment wp016), this molecule yielded a logFC of −0.5885. Besides, the figures for the “logFC CDK13 (Q14004-1)” value in test [3] (experiment wp131) and in test [3] (experiment wp137) were −0.7903 and −0.7062, respectively. Moreover, the “logFC CDK2 (P24941-1)” value is reported as −0.5971 in test [4] (experiment wp016); −0.5971 in test [4] (setting [8]); −0.98 in test [4] (experiment wp131); −0.98 in test [4] (setting [9]); −0.9162 in test [4] (experiment wp137); −0.9162 in test [4] (setting [10]). The “logFC MAP3K11 (Q16584)” value is on record as −1.795 in test [5] (experiment wp131) and −1.493 in test [5] (experiment wp137).

Turning to `C=CCn1c(=O)c2cnc(Nc3ccc(N4CCN(CCCNc5cccc6c5C(=O)N(C5CCC(=O)NC5=O)C6=O)CC4)cc3)nc2n1-c1cccc(C(C)(C)O)n1` (stereo not drawn) [ZNL.02.096], the “logFC AGK (Q53H12)” value in test [6] (Experiment wp056) is reported as −0.5514. For the same molecule, the “logFC NADK2” value in test [7] (experiment wp118) is on record as −0.4004.

`CC(=O)c1c(C)c2cnc(Nc3ccc(N4CCN(CCOCCOCCOCCNC(=O)COc5cccc6c5C(=O)N(C5CCC(=O)NC5=O)C6=O)CC4)cn3)nc2n(C2CCCC2)c1=O` (stereo not drawn) [BSJ.03.123]: in test [6] (Experiment wp084), the “logFC AGK (Q53H12)” value is −0.6506. For the same molecule, the “logFC NADK2” value in test [7] (experiment wp084) is given as −0.4839.

Turning to `CNC(=O)c1ccccc1Nc1cc(Nc2ccc(N3CCN(CCOCCOCCNC(=O)CNc4cccc5c4C(=O)N(C4CCC(=O)NC4=O)C5=O)CC3)cc2OC)ncc1C(F)(F)F` (stereo not drawn) [MFH.5.103.1], in test [1] (experiment wp076), the “logFC TBRG4” value was −0.3858. Also, in test [6] (Experiment wp076), the “logFC AGK (Q53H12)” value is recorded as −0.3672.
